Measurements: patent US12103924B2, “Mitogen-activated protein kinase kinase (MEK) degradation compounds and methods of use” (Icahn School of Medicine at Mount Sinai, priority 2020, dated 2024)

Assays:
Format in all cases: cell-based
HT-29 cells [1] = test: WST-8 cell viability assay, HT-29; conditions: WST-8 3 d serial dilutions, clonogenic assay 10 d
Procedure: (§1) Cells were fixed and stained by crystal violet.
(§2) Cells (2000 cells per well) were seeded into 96-well microplates. After 20 h, cells were treated with 0.1% DMSO or indicated serial dilutions of compounds in duplicate or triplicate for 3 days. Cell viability was tested using MTT (M6494, Thermo Fisher Scientific) or WST-8 reagent (CK04, Dojindo). Briefly, 12 mM MTT was prepared in PBS or WST-8 reagent was warmed up to room temperature. 20 μL MTT or CCK-8 was then added to each well and the plates were kept in incubator at 37° C. for 3 h in the dark. For the WST-8 assay, signal was obtained after the incubation. For the MTT assay, cell medium was replaced with 200 μL of DMSO after the incubation, and then cell plates were kept at 37° C. for another 30 min. Absorbance signals for MTT and WST-8 were read at 540 nm and 450 nm respectively, with 690 nm as reference performed with Infinite F PLEX plate reader (TECAN, Morrisville, NC, USA). GI50 values were analyzed using GraphPad Prism 8 from the data of at least three independent experiments.

SK-MEL-28 cells = test: WST-8 cell viability assay, SK-MEL-28; conditions: WST-8 3 d serial dilutions
Procedure: as §1, §2

HT-29 cells [2] = test: MTT cell viability assay, HT-29; conditions: Homo sapiens, 72 h, MTT assay, 3 d treatment, serial dilutions
Procedure: MTT assay was conducted for HT-29 cells after 3 d treatment with indicated compounds with serial dilutions.
MTT assay was conducted for HT-29 (A) and SK-MEL-28 (B) cells after 3 d treatment with DMSO or indicated compounds with serial dilutions. Clonogenic assay was performed in HT-29 (C) and SK-MEL-28 (D) cells for 14 d treatment with DMSO or indicated compounds with 10, 30 and 100 nM, in duplicate, respectively. Cells were then stained by crystal violet.
HT-29 or SK-MEL-28 cells (300 cells per well) were seeded in 12-well plates. After 20 h, cells were treated with DMSO or indicated concentrations of compounds in duplicate for two weeks. Medium containing indicated compounds was changed every 3 days. Cells were then fixed and stained with the solution containing 6% (v/v) glutaraldehyde (G5882, Sigma-Aldrich) and 0.5% (w/v) crystal violet for 1 h. To remove the background color, the plates with stained cells were immersed in running water until clear colonies were observed. The plates were dried at RT. The staining images were obtained with Epson Perfection V600 Photo.

MEK1/2 = test: Western blot of MEK1/2 protein levels in HT-29 cells; conditions: HT-29 cells, 24 h, 0.3 μM, 1 μM and 3 μM, western blot normalized with α-tubulin
Procedure: Compound concentrations are 0.3 μM, 1 μM and 3 μM.
The indicated protein levels were determined by Western blots.
The sample was centrifuged at 12,000 g for 10 min at 4° C. to get supernatant as cell lysate. Protein concentrations were quantified using Pierce rapid gold BCA protein assay kit.

## Cc1ncsc1-c1ccc([C@H](C)NC(=O)[C@H]2C[C@H](O)CN2C(=O)[C@@H](NC(=O)CCCCCCCCCCN(C)CCCONC(=O)c2ccc(F)c(F)c2Nc2ccc(I)cc2F)C(C)(C)C)cc1 [CPD-053, (2R,4S)-1-((S)-20-(tert-butyl)-1-(3,4-difluoro-2-((2-fluoro-4-iodophenyl)amino)phenyl)-7-methyl-1,18-dioxo-3-oxa-2,7,19-triazahenicosan-21-oyl)-4-hydroxy-N-((S)-1-(4-(4-methylthiazol-5-yl)phenyl)ethyl)pyrrolidine-2-carboxamide]
HT-29 cells [1]
  growth of cells: did not significantly suppress
SK-MEL-28 cells
  growth of cells: did not significantly suppress

## O=C1CCC(N2C(=O)c3cccc(NCCNCCCONC(=O)c4ccc(F)c(F)c4Nc4ccc(I)cc4F)c3C2=O)C(=O)N1 (stereo not shown) [CPD-024, N-(3-((2-((2-(2,6-dioxopiperidin-3-yl)-1,3-dioxoisoindolin-4-yl)amino)ethyl)amino)propoxy)-3,4-difluoro-2-((2-fluoro-4-iodophenyl)amino)benzamide]
HT-29 cells [2]
  GI50: 0.4 ± 0.01 µM
MEK1/2
  MEK1 and MEK2 protein levels: not
